One data set deals with T1, hOGA (Homo sapiens, UniProt O60502).
T1 construct: made in house
T1 sequence (O60502 1-916): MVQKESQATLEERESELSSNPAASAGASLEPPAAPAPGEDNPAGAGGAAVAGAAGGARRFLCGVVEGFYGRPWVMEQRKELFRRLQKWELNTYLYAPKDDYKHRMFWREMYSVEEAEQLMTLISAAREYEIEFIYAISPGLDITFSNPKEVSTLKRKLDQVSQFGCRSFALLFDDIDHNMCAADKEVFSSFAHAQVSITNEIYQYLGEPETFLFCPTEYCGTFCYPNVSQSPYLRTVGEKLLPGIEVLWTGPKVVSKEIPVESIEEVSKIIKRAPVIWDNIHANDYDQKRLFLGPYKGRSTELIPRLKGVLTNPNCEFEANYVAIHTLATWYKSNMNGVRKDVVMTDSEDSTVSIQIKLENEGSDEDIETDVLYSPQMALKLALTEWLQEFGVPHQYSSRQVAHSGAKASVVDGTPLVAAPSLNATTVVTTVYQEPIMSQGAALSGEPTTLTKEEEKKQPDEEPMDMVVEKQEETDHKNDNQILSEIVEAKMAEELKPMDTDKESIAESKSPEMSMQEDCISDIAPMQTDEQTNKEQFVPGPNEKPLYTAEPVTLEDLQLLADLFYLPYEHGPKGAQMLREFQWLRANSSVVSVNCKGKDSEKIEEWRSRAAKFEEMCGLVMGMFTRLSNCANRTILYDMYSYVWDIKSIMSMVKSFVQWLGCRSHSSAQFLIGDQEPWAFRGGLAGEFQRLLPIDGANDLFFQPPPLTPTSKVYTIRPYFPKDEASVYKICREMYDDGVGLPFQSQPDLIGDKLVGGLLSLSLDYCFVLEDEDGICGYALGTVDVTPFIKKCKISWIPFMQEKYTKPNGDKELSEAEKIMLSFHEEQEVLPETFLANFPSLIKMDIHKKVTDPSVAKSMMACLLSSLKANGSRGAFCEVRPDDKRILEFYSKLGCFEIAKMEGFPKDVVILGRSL
To be noted: cited from earlier work.

Data set [1] deals with human lysosomal β-hexosaminidase (HEX). The settings on record: cited from earlier work.
The next data set in a line: physchem. The settings on record: aqueous solution (H2O/D2O) with reference phenol.
Data set [2] is described as follows: pKa determination using 13C NMR titration.
Description: (§7) In this way, a non-linear plot of the difference between NMR resonance frequencies for a compound of interest and those for a standard, such as 3-nitrophenol, can be used to determine the ratio (R) of the acid dissociation constants between these two materials.
(§8) pK determination using 13C NMR. All titrations were carried out on the Bruker AVANCE II 600 MHz NMR
(§9) spectrometer. The samples prepared for each titration contained 5 µL of 1,4-dioxane as an internal standard, an equal mol
(§10) amount of inhibitor and 3-nitrophenol or 3.4-dinitrophenol (depending on the availability of each compound) in 500 µL of
(§11) Each sample was made basic with 25-70 µL of 2M NaOH, and prior to
(§12) titration, it was ensured that there was no change in chemical shift with further addition of base in 5 µL increments, in
(§13) order to accurately establish the δd for each compound. The basic sample was then titrated with 10 µL of 0.5 M (15f-15h,
(§14) titration was reached. The point where the chemical shift stopped changing was the recorded δp for each compound. The
(§15) relative pKa (∆pKa) was then determined by non-linear fitting of data to Equation S1, which provides the value of R (R =
(§16) K x/K r) and describes the relationship between the difference (∆) in chemical shifts (δ) between each compound of
(§17) unknown pKa (x) and the reference compound with known pKa (r). δp and δd represent the chemical shifts of the protonated
(§18) and de-protonated species of each compound, where ∆ expresses the difference between the de-protonated species (δ x –
(§19) δd ), ∆ represents the difference between the deprotonated and protonated species of x (δd – δp ), and ∆ for that of the
(§20) reference compound (∆r = δ r – δ r). The fractional protonation of the reference compound is represented by n and is equal
We observed the 2′-carbon of the
(§21) aminothiazoline system and the C-1 carbon of 3-nitrophenol since these are most proximal to the ionizable center. Fitting
(§22) of the resulting data to Equation S1 (Figure 5 (ThiamEt-G), Supplemental Figure S7) enabled us to obtain values of R for
(§23) each compound and, by comparison to the reference compound, absolute pKa values (Table 1). The observed pKa values
Data set [3] concerns the target T2, human hexosaminidase B (hHexB) (Homo sapiens, UniProt P07686).
T2 construct: Micheal Tropak, Hospital for Sick Children, Toronto (gift, not a vendor)
T2 sequence (P07686 122-556): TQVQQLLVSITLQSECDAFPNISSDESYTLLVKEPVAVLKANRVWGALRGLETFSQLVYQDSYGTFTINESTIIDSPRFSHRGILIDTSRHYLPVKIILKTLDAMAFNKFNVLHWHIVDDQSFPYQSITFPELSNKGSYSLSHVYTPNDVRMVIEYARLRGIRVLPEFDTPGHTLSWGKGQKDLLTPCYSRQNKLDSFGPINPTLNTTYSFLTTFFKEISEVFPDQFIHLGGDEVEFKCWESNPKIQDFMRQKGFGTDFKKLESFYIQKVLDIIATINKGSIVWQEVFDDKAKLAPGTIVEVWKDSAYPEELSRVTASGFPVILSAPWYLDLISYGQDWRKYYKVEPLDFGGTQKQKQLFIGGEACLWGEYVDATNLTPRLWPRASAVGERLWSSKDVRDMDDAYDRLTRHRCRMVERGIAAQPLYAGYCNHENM
The experiment in a line: Inhibition of human hexosaminidase B (4-MUGlcNAc substrate). The format is biochemical. To be noted: for Ki: pH 4.25, 37°C; for (hHexB/hOGA) selectivity ratio: Ki hHexB / Ki hOGA, favored selectivity for hOGA. The source says: We next set out to assess the selectivity of this series of inhibitors for hOGA over the lysosomal β-hexosaminidases, which are comprised of combinations of α and β subunits that are products of the highly homologous HEXA and HEXB genes. […]
(§1) Biological evaluation: Gene expression and protein purification. hOGA was expressed and purified according to the previously described procedure by Macauley et al.[5] hOGA was dialyzed twice against PBS buffer after purification and its concentration determined using the Nanodrop2000. Human β-hexosaminidase was obtained from Micheal Tropak at the Hospital for Sick Children in Toronto, without further purification.
(§2) Kinetic analysis of hOGA. […]
(§3) in PBS pH 7.4 buffer (0.03% BSA) in triplicate at 37°C for 20 minutes. A continuous assay procedure was performed in which the reactions were initiated by the addition of 4-MUGlcNAc substrate (50 µL or 100 µL via a multi-channel […]
(§4) The excitation and emission were 350
(§5) The amount of fluorogenic substrate liberated was quantitatively assessed by using a standard curve for 4-methylumbelliferone under identical buffer conditions. A total of 6-8 inhibitor concentrations were tested, […]
(§6) The hOGA concentrations in the assays ranged from 0.8 nM to 20 nM, depending on whether the Ki being determined was through classic Michaelis-Menten methods or the Morrison Ki fit. For full Ki […]
For the Morrison Ki analyses, only one substrate concentration was used (at the Km) since the method of inhibition was already known from analysis using the Line-weaver Burke plots. […]
Kinetic analysis of β-hexosaminidase. All assays were carried out in 96 well plates (Thermoscientific, FloroNunc, lot […]
reactions were triggered by addition of substrate (20 µL or 15 µL) in a total volume of 45 or 40 µL. Reactions were […]
detect the fluorescent signal. […]

The target of a further data set is T3, human OGA (hOGA) (Homo sapiens, UniProt O60502).
T3 construct: made in house
T3 sequence (O60502 1-916): T1 sequence (O60502 1-916)
The experiment in a line: Inhibition of hOGA-catalysed 4-MUGlcNAc hydrolysis (Ki determination). The format is biochemical.
Description: Refinement of the Morrison approach by Copeland enables defining the Ki value for an inhibitor through the use of relative rates using a quadratic equation (eqn (1)).[46] This approach depends on knowing the initial free enzyme and inhibitor concentrations without the assumption that the free inhibitor concentration is equal to the total inhibitor concentration.1 [drawing 1]
Further, Ki values can be accurately determined over a wide range of enzyme concentrations using this method,[47] which enabled us to use hOGA concentrations that permit accurate initial rate determinations. […]
as §1, §2, §3, §4, §5, §6
For the Morrison Ki analyses, only one substrate concentration was used (at the Km) since the method of inhibition was already known from analysis using the Line-weaver Burke plots.
Kinetic analysis of substrates 18a-e were performed in triplicate using pH 7.4 PBS buffer (0.03% BSA) containing 2.5% DMF, with varying enzyme concentrations. […]

For data set [4] the following is noted: reference compound with known pKa; cited from earlier work.
The mark [5] stands for this setting: 3-nitrophenol as reference compound.
Where [6] appears, read: Dixon plot analysis (approximate Ki).
[7] abbreviates: Michaelis–Menten inhibition analysis, 4-MUGlcNAc, PBS pH 7.4, 37°C, read-out: hOGA Ki.
Where [8] appears, read: 3,4-dinitrophenol as reference compound.
Where [9] appears, read: Morrison Ki fit, 4-MUGlcNAc, PBS pH 7.4, 37°C, read-out: hOGA Ki.

Like-named read-outs stand apart in the source and are kept apart here.

Description for physchem: as §7, §8, §9, §10, §11, §12, §13, §14, §15, §16, §17, §18, §19, §20
We observed the 2′-carbon of the
as §21, §22, §23

For the compound `CC(C)C(=O)N[C@H]1c2nc(CCc3ccccc3)cn2[C@H](CO)[C@@H](O)[C@@H]1O` [GlcNAcstatin C], the Ki on hOGA was 0.0032 µM. The “Ki(HEX)/Ki(hOGA)” value in data set [1] was 190.

Usually pKa stands for the negative logarithm of the acid dissociation constant. As for `CCNC1=N[C@@H]2[C@@H](O)[C@H](O)[C@@H](CO)O[C@@H]2S1` [15c, 1,2-dideoxy-2′-ethylamino-α-D-glucopyranoso-[2,1-d]-Δ2′-thiazoline], the pKa in the data set “physchem” stood at 7.68. Further, the Ki in data set [1] (read-out: hHexB Ki) is 740 ± 60 µM. For the same compound, the “R (Kax/Kar)” value in data set [2] (setting [5]) turned out to be 0.1823 ± 0.0042. Also, the “Fraction protonated at pH 7.4” value in data set [2] is listed as 0.66.

Consider `OC[C@H]1O[C@@H]2SC(NCC(F)(F)F)=N[C@@H]2[C@@H](O)[C@@H]1O` [15h], for which the Ki was 4200 ± 1530 µM in data set [3] (setting [6]) and 1 ± 0.2 µM on human OGA (hOGA) (setting [7]). In addition, the “(hHexB/hOGA) selectivity ratio” value in data set [3] came out at 4200. This compound also showed a pKa in the data set “physchem” of 5.33. Further, the “R (Kax/Kar)” value in data set [2] (setting [8]) was found to be 1.213 ± 0.049. Also, the “Fraction protonated at pH 7.4” value in data set [2] was found to be 0.01.

For the compound `CCCCNC1=N[C@@H]2[C@@H](O)[C@H](O)[C@@H](CO)O[C@@H]2S1` [15e], the Ki is 4800 ± 763 µM in data set [3] (setting [6]) and 0.35 ± 0.09 µM at human OGA (hOGA) (setting [7]). Also, in data set [3], the “(hHexB/hOGA) selectivity ratio” value is 13 700.

`CN(C)C1=N[C@@H]2[C@@H](O)[C@H](O)[C@@H](CO)O[C@@H]2S1` [15b]: in data set [3] (setting [6]), the Ki is 13 ± 3.8 µM.

For `CC(=O)N[C@H]1CN2CC[C@H](O)[C@@H]2[C@@H](O)[C@@H]1O` [6-Ac-Cas, 6-acetamido-6-deoxy-castanospermine], the “selectivity for hOGA over lysosomal β-hexosaminidases” value in data set [1] (in words) is on record as “non-selective”.

In the case of `OC[C@H]1O[C@@H]2SC(NCCF)=N[C@@H]2[C@@H](O)[C@@H]1O` [15f], the Ki in data set [3] (setting [6]) came to 180 ± 44 µM; on human OGA (hOGA), 0.015 ± 0.005 µM. Besides, the “(hHexB/hOGA) selectivity ratio” value in data set [3] is on record as 12 000. Moreover, the pKa in “physchem” came to 6.92. Moreover, the “R (Kax/Kar)” value in data set [2] (setting [5]) turned out to be 0.0316 ± 0.0063. Besides, the “Fraction protonated at pH 7.4” value in data set [2] came out at 0.25.

On to `CCCNC1=N[C@@H]2[C@@H](O)[C@H](O)[C@@H](CO)O[C@@H]2S1` [15d], for which the Ki in data set [3] (setting [6]) is 3700 ± 670 µM; on human OGA (hOGA) (setting [9]) it was 0.002 ± 0.0002 µM. Further, the “(hHexB/hOGA) selectivity ratio” value in data set [3] is on record as 1 850 000.

Consider `CCCC1=N[C@@H]2[C@@H](O)[C@H](O)[C@@H](CO)O[C@@H]2S1` [NButGT, reference compound], for which the pKa in the data set “physchem” turned out to be 4.65. Besides, the “Ki(HEX)/Ki(hOGA)” value in data set [1] (selectivity for hOGA over lysosomal β-hexosaminidases) was 1,500. For the same compound, the “R (Kax/Kar)” value in data set [2] (setting [8]) was determined as 5.47 ± 3.28.

As for `C=CC=CC(=O)N[C@H]1c2nc(CCc3ccccc3)cn2[C@H](CO)[C@@H](O)[C@@H]1O` [GlcNAcstatin G], the Ki on hOGA was 0.0041 µM. Also, the “Ki(HEX)/Ki(hOGA)” value in data set [1] is given as 900 000.

With `C=CCNC1=N[C@@H]2[C@@H](O)[C@H](O)[C@@H](CO)O[C@@H]2S1` [11b], the Ki in data set [3] (setting [6]) came to 2850 ± 570 µM; on human OGA (hOGA) (Michaelis-Menten analysis, hOGA 0.8 nM (Figure S2A), read-out: hOGA Ki), 0.0023 ± 0.0003 µM; on human OGA (hOGA) (setting [9]), 0.0032 ± 0.0004 µM; at human OGA (hOGA) (Morrison approach, hOGA 10 nM, substrate 60 µM (Figure S2B), read-out: hOGA Ki) it was 0.0032 ± 0.0004 µM; on human OGA (hOGA) (graphical determination, Km app against inhibitor concentration (Figure S2A inset), read-out: hOGA Ki), 0.0047 µM. For the same compound, the “(hHexB/hOGA) selectivity ratio” value in data set [3] is recorded as 950 000. The “mode of inhibition of hOGA” value on human OGA (hOGA) (Lineweaver–Burk / Michaelis-Menten analysis) is “competitive inhibition”.

Turning to `CCCCC(=O)N[C@H]1c2nc(CCc3ccccc3)cn2[C@H](CO)[C@@H](O)[C@@H]1O` [GlcNAcstatin H], the “Ki(HEX)/Ki(hOGA)” value in data set [1] is 35 000.

Turning to `O=[N+]([O-])c1cccc(O)c1` [3-nitrophenol], in data set [4], the pKa is recorded as 8.42.

In the case of `OC[C@H]1O[C@@H]2SC(NCC(F)F)=N[C@@H]2[C@@H](O)[C@@H]1O` [15g], the values for the Ki (in data set [3] (setting [6]); on human OGA (hOGA) (setting [7])) were 150 ± 50 µM and 0.06 ± 0.01 µM, respectively. Further, the “(hHexB/hOGA) selectivity ratio” value in data set [3] is given as 2500. The pKa in the data set “physchem” was 6.18. For the same compound, in data set [2] (setting [5]), the “R (Kax/Kar)” value is listed as 0.0058 ± 0.0002. Also, the “Fraction protonated at pH 7.4” value in data set [2] stood at 0.06.

On to `NC1=N[C@@H]2[C@@H](O)[C@H](O)[C@@H](CO)O[C@@H]2S1` [11a], for which the “(hHexB/hOGA) selectivity ratio” value in data set [3] is reported as 1100. Also, the Ki in data set [3] (Michaelis–Menten inhibition analysis (full Ki)) was 5 ± 0.6 µM; on human OGA (hOGA) (setting [9]) it was 0.0047 ± 0.0003 µM.

The record behind these values is paper PMC6008586, “Analysis of transition state mimicry by tight binding aminothiazoline inhibitors provides insight into catalysis by human O-GlcNAcase” (Chemical Science, 2016).
